Data taken from PubChem BioAssay (NCI).
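Grown in 96-well plates, cells were treated for 48 hours with each compound at five concentrations. Insufficient inhibition: endpoint recorded as highest concentration tested. TGI: concentration producing complete growth inhibition.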

Experiments:
Test in all cases: growth of human tumour cells (NCI), 48 h
NCI-H23 lung = test system: NCI-H23 lung
A549 NSCLC = test system: A549 NSCLC
MDA-MB-231 breast = test system: MDA-MB-231 breast
HCT-15 colon = test system: HCT-15 colon
SNB-19 CNS = test system: SNB-19 CNS
MDA-N = test system: MDA-N
OVCAR-3 ovarian = test system: OVCAR-3 ovarian
RXF 393 renal = test system: RXF 393 renal
LOX IMVI melanoma = test system: LOX IMVI melanoma
IGROV1 ovarian = test system: IGROV1 ovarian
RPMI-8226 leukemia = test system: RPMI-8226 leukemia
786-0 renal = test system: 786-0 renal
SK-MEL-2 melanoma = test system: SK-MEL-2 melanoma
SNB-75 CNS = test system: SNB-75 CNS

SMILES	TGI (NCI-H23 lung) [µM]	TGI (A549 NSCLC) [µM]	TGI (MDA-MB-231 breast) [µM]	TGI (HCT-15 colon) [µM]	TGI (SNB-19 CNS) [µM]	TGI (MDA-N) [µM]	TGI (OVCAR-3 ovarian) [µM]	TGI (RXF 393 renal) [µM]	TGI (LOX IMVI melanoma) [µM]	TGI (IGROV1 ovarian) [µM]	TGI (RPMI-8226 leukemia) [µM]	TGI (786-0 renal) [µM]	TGI (SK-MEL-2 melanoma) [µM]	TGI (SNB-75 CNS) [µM]
CCCCCC(C)C[C@H]1CO[C@H](c2ccc[nH]2)N[C@H]1C(=O)OC (stereo partly specified)	> 100	> 100	> 100	> 100	> 100	> 100	> 100	> 100	> 100	> 100	> 100	> 100	> 100	
O=C(CCCC(=O)N1CC(CCl)c2ccc([N+](=O)[O-])cc21)N1CC(CCl)c2ccc([N+](=O)[O-])cc21 (stereo unspecified)	> 100	92.4	> 100	> 100	> 100	> 100	> 100	> 100	> 100		> 100	> 100	> 100	
COc1nc2c(c(=O)n1C)N[C@@H]1[C@@H](O)[C@H](O)CO[C@@H]1N2		> 100		> 100	> 100	> 100	> 100	> 100	> 100	> 100	> 100	> 100	> 100	> 100
CSc1n[n+](C)cc(N)c1N	> 100	> 100	> 100	> 100	97.7	> 100	> 100		> 100	> 100	> 100	> 100	> 100	> 100
Cc1ccc2c3c1O[C@H]1c4nc5ccccc5cc4C[C@@]4(O)[C@@H](C2)N(CC2CC2)CC[C@]314	67.7	26.8	23.5	18.2	> 100	25.4	25.3	21.1	17	> 100	25.4	22.7	35.5	
Cc1nc2c(Br)cc(Br)cc2c(=O)n1-c1ccccc1N		> 100	> 100	> 100	> 100	> 100	> 100		> 100	> 100		> 100	58.1	87.3
Cc1ccc(-n2c(C)nc3c2C(=O)c2ccccc2C3=O)cc1	> 100	> 100		> 100	> 100		73.2	> 100	97.2	> 100		> 100	> 100	> 100
CN(C)Cc1cc(C(=O)/C=C/c2ccc(/C=C/C(=O)c3cc(CN(C)C)c(O)c(CN(C)C)c3)cc2)cc(CN(C)C)c1O	55.7	> 100	41.1	> 100	> 100		> 100	> 100	26.5	> 100	65.5	58.1	> 100	> 100
O=C(c1cccs1)N(C(=O)N1CCC(c2ccccc2)CC1)c1ccccc1	> 100		> 100	> 100	> 100	> 100	> 100	> 100	> 100	> 100	70.3	> 100	> 100	
CC1=C(C#N)S(=O)(=O)c2c(oc(C)c2C)N1	> 100	> 100	> 100	> 100	> 100	> 100	> 100		> 100		> 100	> 100	> 100	> 100
COc1ccc(CNc2nc3ccccc3nc2-c2cccs2)cc1	> 100	> 100	> 100	> 100			> 100	> 100	43.7	> 100	> 100	> 100		> 100
Cc1nnc2c3c(-c4ccccc4)c(-c4ccccc4)oc3nc(N(C)C)n12	> 100	> 100	> 100	> 100	> 100			> 100	> 100	> 100	82.3	> 100		72.4
CCCCNC(=S)Nc1nc(C(=O)NNS(=O)(=O)c2ccccc2)cs1	> 100	> 100	68.8	> 100			54.2		39.2	> 100	> 100	> 100	43.8	76.6
Clc1ccc(-c2nc(-c3ccc(Cl)cc3)[s+]s2)cc1	> 100	> 100	> 100	> 100	> 100	> 100	> 100	> 100	> 100	> 100	90.6	> 100	> 100	
C=C1CCCCCCCCCCC1S(=O)c1ccccc1 (stereo unspecified)	> 100	> 100	75.3	> 100	> 100	> 100	> 100	64.5	91.3	33.4	54.4	38.2	> 100	
COC(=O)c1c(O)ccc2c1c1c(n2C)C(=O)c2ccccc2C1=O	78.2	> 100	25.8	> 100	50.9		> 100	42	> 100	21.8	64.8	57	> 100	15
COC(=O)c1ccc(OCc2ccc3oc(=O)c(-c4ccccc4)nc3c2)cc1	> 100	> 100		> 100	> 100		> 100		> 100		> 100	66.5	> 100	> 100
CC1=C(N2CC2)C(=O)c2nc3n(c2C1=O)CCC3O (stereo unspecified)	0.262	1.49		29.6	0.97		0.763	0.398	1.92	1.2	10.2	0.967	1.4	1.23
